Source: patent US12668599B2, “Heterobifunctional compounds and methods of treating disease” (Halda Therapeutics OpCo, Inc., priority 2023, dated 2026)

Key:
[1] = system: VCaP cells; assay: Cellular growth inhibition assay for VCaP cells (CellTiter-Glo 2.0, 72 hours); format: cell-based, human; details: CellTiter-Glo 2.0
[2] = system: T-Rex 293 cell line SC3 cells lacking increased expression of androgen receptor protein; assay: Cellular growth inhibition, T-Rex 293 SC3 cells without doxycycline (CellTiter-Glo 2.0, 72 hours); format: cell-based; details: T-Rex 293 SC3 cells not exposed to doxycycline (no increased androgen receptor expression)
[3] = system: T-Rex 293 cell line SC3 cells having increased expression of androgen receptor protein due to exposure to doxycycline; assay: Cellular growth inhibition, T-Rex 293 SC3 cells with doxycycline-induced androgen receptor (CellTiter-Glo 2.0, 72 hours); format: cell-based; details: T-Rex 293 SC3 cells with 10 ng/ml doxycycline (increased androgen receptor expression), 72 hours, CellTiter-Glo 2.0

SMILES	GI50 ([1]; 72 hours) [nM]	GI50 ([1]; Homo sapiens, VCaP, 72 h) [nM]	GI50 [2] [nM]	GI50 [3] [nM]	GI50 ([2]; 72 h) [nM]
COc1cc(O[C@H]2CC[C@H](NC(=O)c3ccc(N4C[C@H]5CN(c6ccc(C7=N[C@@H](C)c8nnc(C)n8-c8sc(C)c(C)c87)c(F)c6)C[C@H]5C4)nn3)CC2)ccc1C#N [Compound I-77]	–	< 500	–	< 500	< 500
COc1cc(O[C@H]2CC[C@H](NC(=O)c3ccc(N4CCC5(CCC(c6ccc(C7=N[C@@H](C)c8nnc(C)n8-c8sc(C)c(C)c87)cc6Cl)CC5)C4)nn3)CC2)ccc1C#N (stereo partly drawn) [Compound I-85]	< 500	–	> 3000	< 500	–
COc1cc(O[C@H]2CC[C@H](NC(=O)c3ccc(N4C[C@H]5CN(c6ccc(C7=N[C@@H](Cc8ncco8)c8nnc(C)n8-c8sc(C)c(C)c87)cc6)C[C@H]5C4)nn3)CC2)ccc1C#N [Compound I-106, 6-[(3aR,6aS)-2-[4-[(9S)-4,5,13-trimethyl-9-(oxazol-2-ylmethyl)-3-thia-1,8,11,12-tetrazatricyclo[8.3.0.0^2,6]trideca-2 (6),4,7,10,12-pentaen-7-yl]phenyl]-1,3,3a,4,6,6a-hexahydropyrrolo[3,4-c]pyrrol-5-yl]-N-[4-(4-cyano-3-methoxy-phenoxy)cyclohexyl]pyridazine-3-carboxamide]	–	< 500	–	< 500	< 500
COc1cc(O[C@H]2CC[C@H](NC(=O)c3ccc(N4CCC5(CCC(Oc6ccc(C7=N[C@@H](C)c8nnc(C)n8-c8sc(C)c(C)c87)cc6)C5)C4)nn3)CC2)ccc1C#N (stereo partly drawn) [Compound I-52]	< 500	–	< 500	< 500	–
COc1cc(O[C@H]2CC[C@H](NC(=O)c3ccc(N4CCC5(CCC(c6ccc(C7=N[C@@H](C)c8nnc(C)n8-c8sc(C)c(C)c87)c(OC)c6)CC5)C4)nn3)CC2)ccc1C#N (stereo partly drawn) [Compound I-68]	–	< 500	–	< 500	< 500
COc1cc(O[C@H]2CC[C@H](NC(=O)c3ccc(N4CCC5(CCC(c6ccc(C7=N[C@@H](C)c8nnc(C)n8-c8sc(C)c(C)c87)cc6)C5)C4)nn3)CC2)ccc1C#N (stereo partly drawn) [Compound I-94]	–	< 500	–	< 500	< 500
COc1cc(O[C@H]2CC[C@H](NC(=O)c3ccc(N4CCC5(CCC(c6ccc(C7=N[C@@H](C)c8nnc(C)n8-c8sc(C)c(C)c87)cn6)CC5)C4)nn3)CC2)ccc1C#N (stereo partly drawn) [Compound I-87]	< 500	–	< 500	< 500	–
COc1cc(O[C@H]2CC[C@H](NC(=O)c3ccc(N4CCC5(CCC(c6ccc(C7=N[C@@H](Cc8ncco8)c8nnc(C)n8-c8sc(C)c(C)c87)cc6)CC5)C4)nn3)CC2)ccc1C#N (stereo partly drawn) [Compound I-100, N-((1r,4r)-4-(4-cyano-3-methoxyphenoxy)cyclohexyl)-6-(8-(4-((S)-2,3,9-trimethyl-6-(oxazol-2-ylmethyl)-6H-thieno[3,2-f][1,2,4]triazolo[4,3-a][1,4]diazepin-4-yl)phenyl)-2-azaspiro[4.5]decan-2-yl) pyridazine-3-carboxamide]	–	< 500	–	< 500	< 500

Now from value to molecule, other results behind:

GI50 ([1]; 72 hours) [nM]	GI50 ([1]; Homo sapiens, VCaP, 72 h) [nM]	SMILES	GI50 [2] [nM]	GI50 [3] [nM]	GI50 ([2]; 72 h) [nM]
< 500	–	COc1cc(O[C@H]2CC[C@H](NC(=O)c3ccc(N4CCC5(CCN(c6ccc(C7=N[C@@H](C)c8nnc(C)n8-c8sc(C)c(C)c87)cc6F)C5)C4)nn3)CC2)ccc1C#N (stereo partly drawn) [Compound I-80]	< 500	< 500	–
–	< 500	COCC[C@@H]1N=C(c2ccc(C#CC3CC4(C3)CN(c3ccc(C(=O)N[C@H]5CC[C@H](Oc6ccc(C#N)c(OC(F)(F)F)c6)CC5)nn3)C4)cc2)c2c(sc(C)c2C)-n2c(C)nnc21 [Compound I-9, N-[4-[4-cyano-3-(trifluoromethoxy)phenoxy]cyclohexyl]-6-[6-[2-[4-[(9S)-9-(2-methoxyethyl)-4,5,13-trimethyl-3-thia-1,8,11,12-tetrazatricyclo[8.3.0.0^2,6]trideca-2 (6),4,7,10,12-pentaen-7-yl]phenyl]ethynyl]-2-azaspiro[3.3]heptan-2-yl]pyridazine-3-carboxamide]	–	< 500	< 500
< 500	–	COc1cc(O[C@H]2CC[C@H](NC(=O)c3ccc(N4CCC5(CCN(c6ccc(C7=N[C@@H](C)c8nnc(C)n8-c8sc(C)c(C)c87)c(F)c6)C5)C4)nn3)CC2)ccc1C#N (stereo partly drawn) [Compound I-93]	< 500	< 500	–
–	< 500	COc1cc(O[C@H]2CC[C@H](NC(=O)c3ccc(N4CC5(CC(C#Cc6ccc(C7=NC(Cc8ncco8)c8nnc(C)n8-c8sc(C)c(C)c87)c(F)c6)C5)C4)nn3)CC2)ccc1C#N (stereo partly drawn) [Compound I-112]	–	< 500	> 3000
–	< 500	COc1cc(O[C@H]2CC[C@H](NC(=O)c3ccc(N4CCC5(CCC(c6ccc(C7=N[C@@H](C)c8nnc(C)n8-c8sc(C)c(C)c87)c(F)c6)CC5)C4)nn3)CC2)ccc1C#N (stereo partly drawn) [Compound I-59]	–	< 500	< 500
–	< 500	COc1cc(O[C@H]2CC[C@H](NC(=O)c3cnc(N4CCC5(CCC(c6ccc(C7=N[C@@H](C)c8nnc(C)n8-c8sc(C)c(C)c87)cc6)CC5)C4)nc3)CC2)ccc1C#N (stereo partly drawn) [Compound I-35]	–	< 500	< 500
–	< 500	COC[C@@H]1N=C(c2ccc(C3CCC4(CC3)CCN(c3ccc(C(=O)NC5CCC(Oc6ccc(C#N)c(OC(F)(F)F)c6)CC5)nn3)C4)cc2)c2c(sc(C)c2C)-n2c(C)nnc21 (stereo partly drawn) [Compound I-2, N-[4-[4-cyano-3-(trifluoromethoxy)phenoxy]cyclohexyl]-6-[8-[4-[(9R)-9-(methoxymethyl)-4,5,13-trimethyl-3-thia-1,8,11,12-tetrazatricyclo[8.3.0.0^2,6]trideca-2 (6),4,7,10,12-pentaen-7-yl]phenyl]-2-azaspiro[4.5]decan-2-yl]pyridazine-3-carboxamide]	–	< 500	< 500
–	< 500	COc1cc(O[C@H]2CC[C@H](NC(=O)c3cnc(N4CCC5(CCN(c6ccc(C7=N[C@@H](C)c8nnc(C)n8-c8sc(C)c(C)c87)cc6)CC5)C4)nc3)CC2)ccc1C#N [Compound I-37, N-((1r,4r)-4-(4-cyano-3-methoxyphenoxy)cyclohexyl)-2-(8-(4-((S)-2,3,6,9-tetramethyl-6H-thieno[3,2-f][1,2,4]triazolo[4,3-a][1,4]diazepin-4-yl)phenyl)-2,8-diazaspiro[4.5]decan-2-yl)pyrimidine-5-carboxamide]	–	< 500	< 500
–	< 500	COc1cc(O[C@H]2CC[C@H](NC(=O)c3ccc(N4CCC5(CCC(c6ccc(C7=N[C@@H](C)c8nnc(C)n8-c8sc(C)c(C)c87)cn6)CC5)C4)nn3)CC2)ccc1C#N (stereo partly drawn) [Compound I-86, N-[4-(4-cyano-3-methoxy-phenoxy)cyclohexyl]-6-[8-[5-[(9S)-4,5,9,13-tetramethyl-3-thia-1,8,11,12-tetrazatricyclo[8.3.0.0^2,6]trideca-2 (6),4,7,10,12-pentaen-7-yl]-2-pyridyl]-2-azaspiro[4.5]decan-2-yl]pyridazine-3-carboxamide]	> 3000	< 500	–
–	< 500	COc1cc(O[C@H]2CC[C@H](NC(=O)c3ccc(N4CCC5(CCN(c6ccc(C7=N[C@@H](C)c8nnc(C)n8-c8sc(C)c(C)c87)c(OC)c6)CC5)C4)nn3)CC2)ccc1C#N [Compound I-75]	–	< 500	< 500
